Data published in paper PMC3492795 (International Journal of Biological Sciences, 2012).

Target: T1, LXRβ (Homo sapiens, UniProt P55055)
T1 sequence (P55055 222-460 limits assumed): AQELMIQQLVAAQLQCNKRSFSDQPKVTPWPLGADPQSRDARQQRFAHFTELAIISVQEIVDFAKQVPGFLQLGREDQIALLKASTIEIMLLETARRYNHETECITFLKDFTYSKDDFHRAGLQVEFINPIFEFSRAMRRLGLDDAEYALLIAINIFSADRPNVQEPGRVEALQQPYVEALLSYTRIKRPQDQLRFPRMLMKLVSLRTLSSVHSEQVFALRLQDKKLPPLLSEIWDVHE
Assay: SPR
Type: binding

Kd: 32 µM
SMILES: O=C(O)c1cc(O)c2c(c1)C(=O)c1cccc(O)c1C2=O [RH, 4,5-dihydroxyanthraquinone-2-carboxylic acid]
